Results on two compounds are retold here after patent US20220030850A1, “CRYOPRESERVATIVE COMPOSITIONS AND METHODS” (REGENTS OF THE UNIVERSITY OF MINNESOTA, priority 2015, published 2022).

One data set has as its system H9-MSCs. As to the kind of experiment: Gene expression by qRT-PCR immediately post-thaw. It counts as cell-based, human. The note with it: GAPDH internal control, FIG. 23. The procedure: Certain genes within select gene categories were analyzed using qRT-PCR. H9-MSCs subjected to different freezing approaches were assayed immediately post-thaw for the expression of genes related to trophic factor secretion such as HGF, VEGF, FGF2, CXCL12 (SDF-1α), mesodermal lineage markers TWIST1, TWIST2 (DERMO1), MSX2, the anti-apoptotic marker BCL2, surface markers for cell adhesion such as CD106 and CD54, the osmotic regulator marker GAL-1, and stress-response markers such as EGR1 and NFE2L2 (NRF2).
Pellets of thawed samples described above were resuspended in QIAZOL lysis agent (Qiagen, Hilden, Germany) for further RNA isolation and processing. […] The purified RNA was quantified using a NANODROP 2000 (Therm Fisher Scientific, Waltham, Mass.) device to determine concentration.
For qRT-PCR studies, 800 ng of RNA was used for reverse transcription to make cDNA using SuperScript III First-Strand Synthesis System (Thermo Fisher Scientific, Waltham, Mass.). cDNA was diluted to a concentration of 4 ng/μl and real-time qPCR was performed with 10 ng cDNA per 10 μl reaction with QuantiTect SYBR Green PCR Kit (Qiagen, Hilden, Germany) on CFX384 Real-Time PCR detection system (Bio-Rad Laboratories, Inc., Hercules, Calif.). […] were analyzed using the comparative CT method (Schmittgen et al., 2008. Nat Protoc 3:1101-1108) with GAPDH as an internal control gene.
(In general: In qPCR the cycle at which signal appears reflects the starting amount.)

Another data set relates to Jurkat cells. As to the kind of experiment: 96-well plate freezing, post-thaw scaled raw recovery (calcein-AM/PI). Type of data set: cell-based. The procedure:
The first phase of this study involved using the DE algorithm to develop a three-component cryopreservation solution used at a single cooling rate (1° C./min). Three components (trehalose, glycerol, and ectoine (TGE)) were selected as components of the exemplary freezing medium used for preservation of Jurkat cells, a hematopoietic model cell type, based on pre-screening of multiple non-DMSO components. For this single cooling rate study, the DE algorithm was programmed to output 18 vector solutions per generation with a weight=0.85 and a crossover=1. Jurkat cells cryopreserved in 10% DMSO at a cooling rate of 1° C./min were used as a control.
Cooling rate influences cell survival, and the preferred cooling rate for a given application can depend, at least in part, on the composition of the freezing medium and the cell type being frozen. […] To assess both cooling rate and the composition of the solution, the DE algorithm was programmed to output 27 vector solutions per generation with weight=0.85 and a crossover=1. Solutions were separated into categories based on their DE algorithm defined cooling rate, and were frozen in batches at a cooling rate of […], 0.5° C./min, 1° C./min, 3° C./min, 5° C./min, or 10° C./min. Results were normalized and scaled raw recovery is reported, allowing results from all cooling rates and all generations to be compared directly. […]
After 96 well plates were thawed, calcein-acetoxymethyl (AM)/propidium iodide was added to each well and the wells were covered from light and placed in a 37° C. incubator for 30 minutes to allow the live cells to cleave calcein-AM. The plates were then analyzed for fluorescence on a plate reader. Raw fluorescence values were used to calculate the number of live and dead cells present in each well by correlating to a control curve of unfrozen cells. The live cell recovery was calculated by dividing the number of live cells present in thawed samples (calcein-AM plate reader fluorescence) by the number of live cells seeded pre-freeze (AO/PI counts). […]

For another data set, the target named is lysozyme (Gallus gallus, UniProt P00698). Put plainly: Differential scanning calorimetry, denaturation temperature of lysozyme in osmolyte solution. It counts as physicochemical. The settings on record: 1 mg/ml lysozyme in 20 mM HEPES buffer; single osmolytes 600 mM; heated at 1° C./min; pH 7.3. The procedure:
Lysozyme powder was dissolved into each solution reaching final concentration of 100 mg/ml and then refrigerated. Lysozyme in DPBS solution was used as control. For DSC measurements, experiment solution was made by dissolving osmolyte into 20 mM HEPES buffer and the concentration of osmolyte in each solution remained same as in DPBS solution. Lysozyme powder was dissolved into each solution reaching final concentration of 1 mg/ml and kept refrigerated. Lysozyme in HEPES buffer was used as control. The pH of solutions was 7.3 measured by Beckman 350 meter. Differential scanning calorimetry was performed on a differential scanning calorimeter (Q1000, TA Instruments, New Castle, Del.). Osmolyte solutions containing lysozyme were heated in order to determine the denaturation temperature of lysozyme. Experimental solutions were heated from room temperature to 90° C. at 1° C./min. Specific heat, Cp, was calculated from the heat flow data assuming Cp as a function of temperature were analyzed using OriginPro software (OriginLab Corp., Northampton, Mass.) to subtract curve baseline. The midpoint temperature, Tm, was obtained as the temperature corresponding to the maximum specific heat value from the baseline and the denaturation temperature was assumed to be Tm^32.

Sequence of lysozyme (P00698 19-147): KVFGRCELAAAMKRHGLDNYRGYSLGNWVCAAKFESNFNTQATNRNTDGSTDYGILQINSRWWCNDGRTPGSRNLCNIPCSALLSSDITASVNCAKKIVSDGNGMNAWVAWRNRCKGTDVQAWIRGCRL

For the compound `C[S+](C)[O-]` [DMSO, dimethyl sulfoxide], in the data set with H9-MSCs, the CXCL12 expression entry was “notable change” and the TWIST2 expression entry is given as “elevated”. Besides, in the data set on Jurkat cells (10% DMSO at 1° C./min, control, 96-well), the “recovery of Jurkat cells” value is on record as 16%.
Regarding `OC[C@H]1O[C@@](CO)(O[C@H]2O[C@H](CO)[C@@H](O)[C@H](O)[C@H]2O)[C@@H](O)[C@@H]1O` [Sucrose], the “recovery of Jurkat cells, sugar synergy study” value in the data set on Jurkat cells (150, 300, 600 mM total sugar, FIG. 8) was “outperformed monosaccharides”. Moreover, the “Denaturation temperature Tm of lysozyme” value at lysozyme amounted to 84.4 °C.
